Measured values published in publication PMC12624434 (ACS Pharmacology & Translational Science, 2025).
“Also recorded” adds a separate entry of the source. Marks after values point to notes of the source that are not given here.

Assays:
[1] = for comparison; no reference given; cited from earlier work
[2] = tested on: P-p38 in human brain endothelial cell line hCMEC/D3; assay: p38 phosphorylation in hCMEC/D3 cells (immunoblotting); format: cell-based
Procedure: Cell lysates of the human brain endothelial cell line hCMEC/D3 were prepared in RIPA buffer containing 0.1% SDS, protease inhibitor cocktail 2 and phosphatase inhibitor cocktail (Sigma-Aldrich). Proteins were separated by SDS-PAGE and transferred to nitrocellulose by wet electrotransfer. Membranes were blocked with 5% milk in Tris-buffered saline (TBS) overnight at 4 °C and then incubated with the appropriate primary antibody diluted in TBS containing 0.1% Tween-20 and 1% BSA for 2 h and 30 min at rt; the primary antibodies used were specific for phospho P-p38, p38 (1:1000; Cell Signaling Technology) and GADPH (1:10000; Merck). Membranes were washed with 0.1% Tween-20 in TBS and then incubated with goat antimouse or goat antirabbit horseradish peroxidase (HRP)-conjugated IgG (GE Healthcare) diluted 1:10,000 or 1:5000, respectively, with 0.1% Tween-20, 1% BSA in PBS. Membranes were developed using the ECL reagents (Roche) and images were acquired with the Bio-Rad ChemiDoc MP Imaging System and the Bio-Rad Image Lab software (version 6.0.1). Protein bands were quantified using ImageJ software version 1.52a (NIH Bethesda), whereby signal intensity was normalized to signal intensity from GADPH from the same sample as a loading control. Phosphorylation levels were normalized against the total levels of p38. Densitometric quantification of three independent immunoblots was determined by changes in protein or phosphoprotein content normalized to GADPH total protein loading controls, with values expressed as fold increase. Data are shown as mean ± SD. Statistical analysis included one-way ANOVA with significance levels set at 0.05, followed by posthoc Dunnett’s tests.

[3] = tested on: VEGFA-induced mechanical allodynia in rats; assay: VEGFA-induced mechanical allodynia (von Frey), intraplantar injection; format: in vivo, rat
Procedure: (§1) The procedure was performed as reported previously. Briefly, rats were gently restrained in a fabric cloth and given an intraplantar injection in the hind-paw containing VEGFA165 (10 nM) and compound (EG00229 or 12h, at 30 or 10 μM) alone or in combination in 50 μL of PBS vehicle (NaCl 137 mM, KCl 2.5 mM, Na2HPO4 10 mM, and KH2PO4 1.8 mM), using a 31G needle.

[4] = tested on: total Na+ currents in rat DRG neurons; assay: Whole-cell patch-clamp of Na+ currents in dissociated DRG neurons; format: cell-based; conditions: for V 1/2 activation, total Na+ / V 1/2 inactivation, total Na+: mean ± SEM (n cells)
Procedure: Recordings were obtained from acutely dissociated DRG neurons obtained from female rats as described earlier. Patch-clamp recordings were performed at room temperature (22–24 °C). Currents were recorded using an EPC 10 Amplifier-HEKA (HEKA Elektronik, Ludwigshafen, Germany) linked to a computer with Patchmaster software.
To determine the effect of VEGFA application on voltage-gated sodium currents, we incubated DRG neurons for 30 min with recombinant rat VEGFA, 1 nM (Cat#P4853, Abnova, Taipei, Taiwan) before whole-cell patch-clamp recordings. […] For the control condition, DRG neurons were incubated for 30 min with DMSO at a final concentration of 0.1%.
For Na^+ current (I Na+) recordings, the external solution contained (in mM): 130 NaCl, 3 KCl, 30 tetraethylammonium chloride, 1 CaCl2, 0.5 CdCl2, 1 MgCl2, 10 D-glucose and 10 HEPES (pH 7.3 adjusted with NaOH, and mOsm/L = 315). Patch pipettes were filled with an internal solution containing (in mM): 140 CsF, 1.1Cs-EGTA, 10 NaCl, and 15 HEPES (pH 7.3 adjusted with CsOH, and mOsm/L = 300). Peak Na^+ current was acquired by applying 150 ms voltage steps from – 70 to +60 mV in 5-mV increments from a holding potential of – 60 mV to obtain the current–voltage (I–V) relation.
Normalization of currents to each cell’s capacitance (pF) was performed to allow for collection of current density data. For I–V curves, functions were fitted to data using a nonlinear least-squares analysis. I–V curves were fitted using double Boltzmann functions: f=a+g1/(1+exp((x−V1/21)/k1))+g2/(1+exp(−(x−V1/22)/k2)) where x is the membrane potential, V 1/2 is the midpoint potential and k is the corresponding slope factor for single Boltzmann functions. Double Boltzmann fits were used to describe the shape of the curve, not to imply the existence of separate channel populations. Numbers 1 and 2 simply indicate first and second midpoints; a along with g are fitting parameters.
Activation curves were obtained from the I–V curves by dividing the peak current at each depolarizing step by the driving force according to the equation: G = I/(V mem – E rev), where I is the peak current, V mem is the membrane potential and E rev is the reversal potential. The conductance (G) was normalized against the maximum conductance (G max). Steady-state inactivation (SSI) curves were obtained by applying an H-infinity protocol that consisted of 1-s conditioning prepulses from −120 to +10 mV in 10-mV increments followed by a 200 ms test pulse to +10 mV. Inactivation curves were obtained by dividing the peak current recorded at the test pulse by the maximum current (I max). Activation and SSI curves were fitted with the Boltzmann equation.

[5] = tested on: T180/Y182 phosphorylated p38 (P-p38) in retinal endothelium; assay: VEGFA-induced p38 phosphorylation in ex vivo mouse retina (immunostaining); format: cell-based
Procedure: Retinae from C57Bl/6J mice were fixed in 4% formaldehyde in PBS for 1 h and washed three times with PBS. After 1 h in blocking buffer (3% Triton X-100, 1%1% Tween and 0.5% BSA in 2× PBS), retinae were immunostained by incubation with rabbit anti-P-p38 MAPK (Thr180/Tyr182) antibody (Cell Signaling) and biotin-conjugated Isolectin B4 (IB4, Merck) overnight at 4 °C, followed by Alexa Fluor 555–conjugated goat antirabbit antibodies (Invitrogen) and Alexa Fluor 488-conjugated streptavidin (Invitrogen) respectively for 1 h at rt. Images were acquired with a Zeiss Axioskop 2 microscope, using a ph3 Plan-Apochromat 63×/1.40 oil objective, Hamamatsu camera and the HCImage software. Each image was acquired as an RGB color image and then processed with ImageJ software version 1.52a (NIH Bethesda). Channels were split to separate the IB4 staining (green channel) from the P-p38 staining (red channel). The threshold function was used on the IB4 image to determine the area of the vessels and to generate a mask that was restored in the red channel image to measure the area of the vessels positive to P-p38 staining. The P-p38 staining area was normalized against the area stained with IB4. Three retinae from three different mice per condition were used for analysis. One-way ANOVA was used to compare the different treatments.

[6] = tested on: VEGFA-induced aversion to mechanical stimuli in rats; assay: Conditioned place aversion (CPA) to 10 g vF stimulation after VEGFA; format: in vivo, rat
Procedure: as §1
The experiments were conducted in a two-chamber device based on the protocols from and as previously described. The protocol includes 4 × 10 min of sequential tests of preconditioning (10 min), conditioning (2 × 10 min) and testing (10 min). During preconditioning, the animal is allowed free access to two connected chambers (30 × 30 × 19 cm), each associated with a scented lip-balm applied to the walls. Immediately following preconditioning, a divider was applied between the chambers, and the rats were conditioned to either stimuli or no-stimuli for 10 min in each chamber. The stimuli consisted of repeated stimulation with a 10 g VF-filament every 30 s for the 10 min that the subject was contained in that chamber, while no stimuli (NS) was applied in the other chamber. The order and side of conditioning was alternated between subjects. Following the conditioning, the divider was removed, and the rat was allowed free access to both chambers for the 10 min test. Animal movements in each chamber were recorded by a camera above, and the duration of time spent in each chamber was recorded during preconditioning and test phase. Decreased time spent in a chamber during the test versus preconditioning indicated avoidance for that chamber and was calculated as a CPA-score: time in VF-chamber during preconditioning – time in VF-chamber during test.

NRP1 b1 domain = target: T1, NRP1 b1 domain (Homo sapiens, UniProt O14786); assay: SPR binding to immobilized NRP1 b1 domain (Biacore 4000, CM5 chip); conditions: steady-state binding, 25 °C; mean ± SD; read-out: SPR NRP1 b1 domain equilibrium KD
T1 construct: with the purified recombinant NRP1 b1 domain immobilized on the chip; inferred from Ni-NTA capture), TEV-cleavable (cleaved yes); made in house; host or cells: E. coli Rosetta (DE3)
T1 sequence (O14786 275-424 limits assumed): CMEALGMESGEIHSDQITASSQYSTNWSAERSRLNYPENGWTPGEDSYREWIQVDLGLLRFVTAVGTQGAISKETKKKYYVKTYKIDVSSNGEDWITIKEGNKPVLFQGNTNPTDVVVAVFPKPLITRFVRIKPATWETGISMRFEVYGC
Procedure: Surface Plasmon Resonance experiments were performed using a Biacore 4000 instrument at a constant temperature of 25 °C. Sensor chips, buffer stock solutions, and immobilization reagents were purchased from GE Healthcare. Recombinant human NRP1-b1 was produced in-house and recombinant human NRP1-ECD (extracellular domain) was purchased from ACRO (catalogue number NR1-H5A228). All other reagents were obtained from Sigma.
PBS containing 0.05% surfactant P20 was used as the running buffer during immobilization. NRP1-b1 was immobilized onto a CM5 chip using random amine coupling. The four flow cells were treated in the same way to optimize throughput. In summary, spots 1 and 2 were activated with the coupling reagents EDC and NHS for 10 min. NRP1-b1 at a concentration of 20 μg/mL in 10 mM sodium acetate pH 5 was injected onto the surface for 10 and 5 min in spots 1 and 2, respectively to generate surfaces with high and low density. […] The unmodified spot 3 was used as a reference.
PBS buffer containing 0.05% surfactant P20 and 3% DMSO was used as the running buffer and sample dilution buffer throughout these experiments. Dose–responses were obtained using a 2-fold sample dilution from 16 μM to 31 nM, using an injection time of 60 s. Surface regeneration between injections was not necessary, but a wash step with 1 M NaCl was included after injection of the highest concentration sample for each compound.
Binding curves were corrected for variations in DMSO concentration and normalized by molecular weight. Binding results to high and low-density surfaces were processed independently and the average ± SD is presented. K Ds reported are derived from steady-state binding responses and therefore correspond to the equilibrium binding affinity of the compounds.

[7] = 30 μM, 15 min prior to VEGFA165 stimulation

Kd (NRP1 b1 domain): 2710 ± 130 nM
SMILES: NC(N)=NCCCC(NC(=O)c1sccc1NS(=O)(=O)c1cccc2nsnc12)C(=O)O (centres unmarked) [EG00229, reference compound]
half-life [1]: 34.8 min | p38 phosphorylation when added alone ([2]; 30 μM alone, 5 min): induced p38 kinase phosphorylation | effect on VEGFA-induced p38 phosphorylation [2, 7]: prevented VEGFA-induced p38 phosphorylation | effect on VEGFA-induced mechanical allodynia ([3]; 10 μM coinjected with VEGFA, male rats): produced significant antinociceptive effects | effect on VEGFA-induced mechanical allodynia (paw withdrawal threshold, AUC 0-6 h) ([3]; 30 μM coinjected with VEGFA165 10 nM, 50 μL intraplantar, male and female rats): comparable antinociceptive effects in males and females | effect on Na+ currents, alone ([4]; 30 μM alone, 30 min): Neither EG00229 nor 12h alone had any obvious effect | effect on VEGFA-induced increase in Na+ currents and current density ([4]; 30 μM, then VEGFA165 1 nM 30 min, small-sized DRG neurons): equally reduced | V 1/2 activation, total Na+ ([4]; compound 30 μM + VEGFA): –16.384 ± 0.773 (15) ^b mV | V 1/2 inactivation, total Na+ ([4]; compound 30 μM + VEGFA): –49.707 ± 2.554 (15) mV | V 1/2 activation, total Na+ ([4]; compound alone, 30 μM): –15.229 ± 0.972 (10) ^b mV | V 1/2 inactivation, total Na+ ([4]; compound alone, 30 μM): –49.108 ± 2.415 (10) mV | p38 phosphorylation when added alone ([5]; 30 μM alone, 5 min): induced p38 phosphorylation | effect on VEGFA-induced p38 phosphorylation in retinal endothelium [5, 7]: prevented VEGFA-induced p38 phosphorylation | effect on VEGFA-induced aversion in CPA-paradigm ([6]; 10 μM, male rats): had no effect | VEGFA-induced aversion (time in vF-conditioned chamber) ([6]; 30 μM coinjected with VEGFA 10 nM, male and female rats): prevented the stimulus-aversion from VEGFA in both sexes; also recorded: the aversion was prevented | CPA-score vs VEGFA/vehicle ([6]; 30 μM, female rats): showed a significant effect
